PMC6015718, “Effect of Polyvalence on the Antibacterial Activity of a Synthetic Peptide Derived from Bovine Lactoferricin against Healthcare-Associated Infectious Pathogens” (BioMed Research International, 2018)
Several values for one entry are separate records, joined by “and”; a condition that tells them apart may be missing. Equal values may be shown once. Read-outs that look alike come from different tables or passages of the source. Positions of bridges follow the written chain, without caps; N, C: chain ends. Non-standard residues stand in square brackets, D forms with d. Residues, ends and D or L forms follow the SMILES beside them. Chains are numbered I, II in the order given. Ahx = NCCCCCC(=O)O

How the values were obtained:
Assay type in all cases: cell-based
human erythrocytes = assay: Haemolytic activity; conditions: 6.25-100 μM peptide; human erythrocytes 2% haematocrit in PBS, 2 h 37°C, OD492; n = 2
Protocol: Human erythrocytes collected from the blood samples of healthy humans were harvested by centrifugation for 7 min at 162 ×g and washed three times in phosphate-buffered saline (PBS). The erythrocytes (2% haematocrit in PBS) were incubated with peptide molecules at several concentrations (6.25, 12.5, 25, 50, and 100 μM), for 2 h at 37°C. PBS was used as a negative control, and sterile distilled water was used as a positive control for haemolysis (100% of haemolysis). The plate was subsequently centrifuged at 1459 ×g for 10 min at 4°C. Aliquots of the supernatants of each well (75 μL) were carefully transferred to a new sterile 96-well plate, and haemolytic activity was evaluated by measuring the OD492 using an Asys Expert Plus Microplate reader. The experiments were performed in duplicate, and peptide haemolysis activity was calculated.
Lastly, to evaluate the effects of the peptides on normal human erythrocytes, their haemolysis activity was investigated (Figure 6). The percentage of haemolytic activity on human red blood cells after 2 hours was determined via the standard microtitre dilution method. The peptide concentration is reported as μM.

[1] = test system: Klebsiella pneumoniae ATCC 13883 (sensitive)
Source text: (§1) All microorganisms were purchased from the American Type Culture Collection (ATCC). To determine the antibacterial activity of synthetic peptides against HCAI bacteria, the Staphylococcus aureus strains ATCC 25923 and ATCC 33591 were employed as sensitive and resistant strains, respectively, of a Gram-positive microorganisms species, and Klebsiella pneumoniae ATCC 13883 and ATCC 700603 as sensitive and resistant strains of a Gram-negative species.
(§2) The antibacterial activity assay for peptides and controls was performed according to the National Committee for Clinical Laboratory Standards method M7-A7 [11]. MIC and MBC values were determined using a broth microdilution and growth inhibition method with some modification. Briefly, MIC assays were performed by liquid inhibition growth assay in an untreated sterile 96-well flat-bottom tissue culture plate. Bacteria were cultured overnight on Mueller-Hinton agar (MHA). Three colonies were transferred to 8 mL of Mueller-Hinton broth (MHB) and incubated at 37°C until the mid-exponential phase of growth. The turbidity of the cultures was measured and adjusted spectrophotometrically to McFarland standard 0.5, then diluted to a final concentration of […]. Synthetic antibacterial peptide candidate stock solutions were diluted to final concentrations per well of 200, 100, 50, 25, 12.5, and 6.25 μM. […]
(§3) Wells containing MHB with bacterial inoculum only served as bacterial growth controls. Additional controls included MHB alone and MHB with ciprofloxacin (CIP) (2 μg/mL) and bacteria as a positive control. The microplate was incubated for 24 h at 37°C, and growth inhibition was examined by monitoring the optical density at 620 nm (OD620). MIC was defined as the lowest peptide concentration that inhibited bacteria growth >90%.

[2] = test system: Klebsiella pneumoniae ATCC 700603 (resistant)
Source text: as §1, §2, §3

[3] = test system: Staphylococcus aureus ATCC 33591 (resistant)
Source text: as §1, §2, §3

[4] = test system: Staphylococcus aureus ATCC 25923 (sensitive)
Source text: as §1, §2, §3

[5] = test system: Klebsiella pneumoniae ATCC 13883 (sensitive); remark: listed apart in the source
Source text: as §1
(§4) To determine the MBC, an aliquot from each well of the MIC assay was spread onto MHA. After 18 h at 37°C, the concentration that inhibited bacterial growth was determined. Each of these tests was performed four times. MBC was defined as the lowest concentration of peptide that reduced the number of bacteria by 99.9% in vitro [12].

[6] = test system: Klebsiella pneumoniae ATCC 700603 (resistant); remark: listed apart in the source
Source text: as §1, §4

[7] = test system: Staphylococcus aureus ATCC 33591 (resistant); remark: listed apart in the source
Source text: as §1, §4

[8] = test system: Staphylococcus aureus ATCC 25923 (sensitive); remark: listed apart in the source
Source text: as §1, §4

N=C(N)NCCC[C@H](NC(=O)[C@H](Cc1c[nH]c2ccccc12)NC(=O)[C@H](CCC(N)=O)NC(=O)[C@H](Cc1c[nH]c2ccccc12)NC(=O)[C@H](CCCNC(=N)N)NC(=O)[C@@H](N)CCCNC(=N)N)C(=O)NCCCC[C@H](NC(=O)[C@H](CCCNC(=N)N)NC(=O)[C@H](Cc1c[nH]c2ccccc12)NC(=O)[C@H](CCC(N)=O)NC(=O)[C@H](Cc1c[nH]c2ccccc12)NC(=O)[C@H](CCCNC(=N)N)NC(=O)[C@@H](N)CCCNC(=N)N)C(=O)NCCCCCC(N)=O [Dimeric] (I: H-RRWQWRK[Ahx]-NH2 / II: H-RRWQWR; amide I:7-II:C; N-terminus assumed)
haemolysis activity over the concentrations tested (human erythrocytes): < 5% | MIC ([1]; ATCC 13883, 24 h): 12.5 µM | MIC ([1]; K. pneumoniae ATCC 13883 sensitive, MHB, 24 h 37°C, OD620, >90% inhibition, average of four independent experiments in duplicate): 27 µg/mL | MIC ([1]; K. pneumoniae ATCC 13883 sensitive, MHB, 24 h 37°C, OD620, >90% inhibition, average of four independent experiments in duplicate, listed as dimeric): ≥ 27 µg/mL | MIC ([1]; K. pneumoniae ATCC 13883 sensitive, value in parentheses, MHB, 24 h 37°C, OD620, >90% inhibition): ≥ 12,5 µM | concentration at which antibacterial activity was exhibited (dose-response profile) ([1]; K. pneumoniae sensitive strain, Figure 3): ≤ 27 μg/mL and ≤ 12,5 μM | MIC ([2]; ATCC 700603, 24 h): 12.5 µM | MIC ([2]; K. pneumoniae ATCC 700603 resistant, MHB, 24 h 37°C, OD620, >90% inhibition, average of four independent experiments in duplicate): 27 µg/mL | MIC ([2]; K. pneumoniae ATCC 700603 resistant, MHB, 24 h 37°C, OD620, >90% inhibition, average of four independent experiments in duplicate, listed as dimeric): ≥ 27 µg/mL | MIC ([2]; K. pneumoniae ATCC 700603 resistant, value in parentheses, MHB, 24 h 37°C, OD620, >90% inhibition): ≥ 12,5 µM | concentration at which antibacterial activity was exhibited (dose-response profile) ([2]; K. pneumoniae resistant strain, Figure 3): ≤ 27 μg/mL and ≤ 12,5 μM | MIC ([3]; ATCC 33591, 24 h): 25 µM | MIC ([3]; S. aureus ATCC 33591 resistant, MHB, 24 h 37°C, OD620, >90% inhibition, average of four independent experiments in duplicate): 55 µg/mL | MIC ([3]; S. aureus ATCC 33591 resistant, MHB, 24 h 37°C, OD620, >90% inhibition, average of four independent experiments in duplicate, listed as dimeric): ≥ 55 µg/mL | MIC ([3]; S. aureus ATCC 33591 resistant, value in parentheses, MHB, 24 h 37°C, OD620, >90% inhibition): ≥ 25 µM | MIC ([4]; ATCC 25923, 24 h): 6.25 µM | MIC ([4]; S. aureus ATCC 25923 sensitive, MHB, 24 h 37°C, OD620, lowest concentration inhibiting growth >90%, average of four independent experiments in duplicate): 14 µg/mL | MIC ([4]; S. aureus ATCC 25923 sensitive, MHB, 24 h 37°C, OD620, lowest concentration inhibiting growth >90%, average of four independent experiments in duplicate, listed as dimeric): ≥ 14 µg/mL | MIC ([4]; S. aureus ATCC 25923 sensitive, value in parentheses, MHB, 24 h 37°C, OD620, >90% inhibition, average of four independent experiments in duplicate): ≥ 6.25 µM | concentration at which antibacterial activity was displayed (dose-response profile) ([4]; S. aureus sensitive strain, Figure 2): ≥ 14 μg/mL and ≥ 6.25 μM | MBC ([5]; ATCC 13883, 18 h): 25 µM | MBC ([5]; K. pneumoniae ATCC 13883 sensitive, MHA, 18 h 37°C, 99.9% reduction): 55 µg/mL | MBC as a function of the MBC of the tetrameric peptide ([5]; K. pneumoniae sensitive strain, from concentrations in μg/mL): 0.5 x MBC | MBC ([6]; ATCC 700603, 18 h): 100 µM | MBC ([6]; K. pneumoniae ATCC 700603 resistant, MHA, 18 h 37°C, 99.9% reduction): 220 µg/mL | MBC as a function of the MBC of the tetrameric peptide ([6]; K. pneumoniae resistant strain, from concentrations in μg/mL): 1.9 x MBC | MBC ([7]; ATCC 33591, 18 h): 50 µM | MBC ([7]; S. aureus ATCC 33591 resistant, MHA, 18 h 37°C, 99.9% reduction): 110 µg/mL | MBC ([7]; S. aureus ATCC 33591 resistant, MHA, 18 h 37°C, 99.9% reduction, listed as dimeric): ≥ 110 µg/mL | MBC ([7]; S. aureus ATCC 33591 resistant, value in parentheses, MHA, 18 h 37°C, 99.9% reduction): ≥ 50 µM | MBC as a function of the MBC of the tetrameric peptide ([7]; S. aureus resistant strain, from concentrations in μg/mL): 1.9 x MBC | MBC ([8]; ATCC 25923, 18 h): 50 µM | MBC ([8]; S. aureus ATCC 25923 sensitive, MHA, 18 h 37°C, 99.9% reduction, average of four independent experiments): 110 µg/mL | MBC ([8]; S. aureus ATCC 25923 sensitive, MHA, 18 h 37°C, 99.9% reduction, average of four independent experiments, listed as dimeric): ≥ 110 µg/mL | MBC ([8]; S. aureus ATCC 25923 sensitive, value in parentheses, MHA, 18 h 37°C, 99.9% reduction): ≥ 50 µM | MBC as a function of the MBC of the tetrameric peptide ([8]; S. aureus sensitive strain, from concentrations in μg/mL): 1.9 x MBC
